Measured values reported in PubChem BioAssay (NCI).
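A five-concentration, 48-hour dose response in 96-well plates underlies each endpoint, interpolated linearly between surrounding concentrations. At the GI50, growth is halved. TGI marks complete inhibition of growth.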

Tests used:
Test in all cases: growth of human tumour cells (NCI), 48 h
SK-MEL-2 melanoma = system: SK-MEL-2 melanoma
SF-539 CNS = system: SF-539 CNS
IGROV1 ovarian = system: IGROV1 ovarian
OVCAR-8 ovarian = system: OVCAR-8 ovarian
U251 CNS = system: U251 CNS
SF-295 CNS = system: SF-295 CNS
SNB-75 CNS = system: SNB-75 CNS
HOP-62 NSCLC = system: HOP-62 NSCLC

| SMILES | TGI (SK-MEL-2 melanoma) [µM] | TGI (SF-539 CNS) [µM] | TGI (IGROV1 ovarian) [µM] | TGI (OVCAR-8 ovarian) [µM] | TGI (U251 CNS) [µM] | TGI (SF-295 CNS) [µM] | TGI (SNB-75 CNS) [µM] | TGI (HOP-62 NSCLC) [µM] | GI50 (SK-MEL-2 melanoma) [µM] | GI50 (SF-539 CNS) [µM] | GI50 (IGROV1 ovarian) [µM] | GI50 (OVCAR-8 ovarian) [µM] | GI50 (U251 CNS) [µM] | GI50 (SF-295 CNS) [µM] | GI50 (SNB-75 CNS) [µM] | GI50 (HOP-62 NSCLC) [µM] |
| --- | --- | --- | --- | --- | --- | --- | --- | --- | --- | --- | --- | --- | --- | --- | --- | --- |
| Nc1ccccc1C(=O)/C=C/c1c(O)ccc2ccccc12 | > 100 | > 100 | > 100 | > 100 | > 100 | > 100 | > 100 | > 100 | – | – | – | – | – | – | – | – |
| O=[N+]([O-])c1cccc(C2=NOC(C3CCCCC3)C2)c1 (centres undefined) | > 100 | > 100 | > 100 | > 100 | > 100 | > 100 | > 100 | > 100 | – | – | – | – | – | – | – | – |
| O=C(CC(=O)C1CCOC1=O)C(=O)Nc1cccc(Cl)c1 (centres undefined) | > 100 | > 100 | > 100 | > 100 | > 100 | > 100 | > 100 | > 100 | – | – | – | – | – | – | – | – |
| COc1ccc(CC2c3c(cc(OC)c(OC)c3OC)CCN2C)cc1OC (centres undefined) | > 100 | > 100 | – | > 100 | > 100 | > 100 | > 100 | > 100 | – | – | – | – | – | – | – | – |
| CC(C)CCC[C@@H](C)C1CCC2[C@@H]3CC=C4C[C@@H](C(=O)NCCN(C)C)CC[C@]4(C)C3CC[C@@]21C (some centres undefined) | 23.6 | 46 | > 100 | > 100 | 77.4 | > 100 | > 100 | 61.2 | – | – | – | – | – | – | – | – |
| CC(C(=O)c1ccc(Cl)cc1)/C(=N/NC(=O)NN)C(=O)Nc1cccc(C(F)(F)F)c1 (centres undefined) | > 100 | > 100 | > 100 | > 100 | > 100 | > 100 | > 100 | – | – | – | – | – | – | – | – | – |
| COc1cccc(/C=N/[N-]C(=O)c2ccncc2)c1[O-].COc1cccc(/C=N/[N-]C(=O)c2ccncc2)c1[O-].[O]=[U](=[O])([OH2+])[OH2+] | > 74 | > 42.8 | > 90.4 | > 100 | 40.8 | > 54.7 | 62.6 | 24.9 | 19.8 | 4.27 | 9.59 | 5.11 | 4.34 | 5.86 | 12.9 | 3.71 |
| CC(C)=C1CCC(CN(C)C)C1=O (centres undefined) | 78.4 | > 100 | > 100 | 49.4 | > 100 | > 100 | 24.2 | – | – | – | – | – | – | – | – | – |
| NC(=O)C(=O)CC(=O)c1ccccc1NC1=CC(=O)C(=O)c2ccccc21 | > 100 | > 100 | > 100 | > 100 | > 100 | – | > 100 | > 100 | – | – | – | – | – | – | – | – |
| CCOP(=O)(OCC)C(C(=O)OC)C(=O)C(=O)Nc1ccc(Cl)cc1Cl (centres undefined) | > 100 | > 100 | > 100 | > 100 | > 100 | – | > 100 | > 100 | – | – | – | – | – | – | – | – |
| N#CCCN1C/C(=C/c2ccc(Br)cc2)C(=O)/C(=C/c2ccc(Br)cc2)C1 | 6.54 | 2.99 | 5.35 | > 100 | 1.58 | – | 31.4 | 3.57 | 2.6 | 1.61 | 2.02 | 1.14 | 0.409 | – | 4.35 | 1.66 |
| O=C(N/C(=C\c1ccc([N+](=O)[O-])cc1)c1nc2ccccc2[nH]1)c1ccccc1 | > 100 | > 100 | > 100 | > 100 | > 100 | > 100 | – | > 100 | – | – | – | – | – | – | – | – |
| Cc1ccc(C)c(N2C/C(=N\NC(=O)CC#N)C(c3nc4ccccc4s3)C(=O)C2=O)c1 (centres undefined) | > 100 | – | > 100 | > 100 | > 100 | > 100 | > 100 | > 100 | – | – | – | – | – | – | – | – |
| Cc1[nH]c2ccccc2c1C1Cc2ccccc2N1C(=O)C#Cc1ccc([N+](=O)[O-])cc1 (centres undefined) | – | > 100 | > 100 | > 100 | > 100 | > 100 | > 100 | > 100 | – | – | – | – | – | – | – | – |
| O=C(Cc1nc2c3c(ccc2[nH]c1=O)C(=O)c1ccccc1C3=O)C(=O)Nc1ccccc1[N+](=O)[O-] | 45.4 | 34.6 | 65.4 | 39.6 | 32 | – | – | 39.2 | – | – | – | – | – | – | – | – |
| COc1c(C)n(CCO)ccc1=O | > 100 | – | – | > 100 | > 100 | > 100 | > 100 | > 100 | – | – | – | – | – | – | – | – |
| CC1=C(C#N)C(=O)CC(c2ccc(Cl)cc2)N(C)N1 (centres undefined) | > 100 | – | – | – | > 100 | > 100 | > 100 | > 100 | – | – | – | – | – | – | – | – |
| COc1cc(/C=C2\[C@H]3c4c(c(OC)c(C)c(OC)c4OC)CC(C(=O)N2Cc2ccccc2)N3C)c(OC)c(C)c1OC | – | 33.4 | 51.6 | > 100 | 34.7 | 41.5 | 82.7 | 35.1 | – | – | – | – | – | – | – | – |
| CCOC(=O)NC(=O)c1cn(C2CCCCC2)c(=O)[nH]c1=O | > 100 | > 100 | > 100 | > 100 | > 100 | > 100 | – | > 100 | – | – | – | – | – | – | – | – |
